The subject of assay [1] is Ang-(1-7) peptidase (CSF). Nature of the assay: Inhibitor profile: [125I]-Ang-. Format: biochemical, sheep. As to conditions: text to Figure 1D-F; pooled CSF.
For the next assay, the target named is neurolysin. As to conditions: cited from earlier work.
Assay [2] concerns the target TOP (thimet oligopeptidase). To be noted: cited from earlier work.
Assay [3] relates to Ang-(1-7) peptidase (CSF). To be noted: sheep CSF, earlier study; cited from earlier work.
The next assay deals with neprilysin. As to conditions: no reference given; quoted as known selective inhibitor; cited from earlier work.
The conditions of assay [4]: cited from earlier work.
Assay [5] deals with Ang-(1-7) peptidase (CSF). Nature of the assay: Peptidase kinetics. Format: biochemical. As to conditions: sheep CSF, control and BMX; product [125I]-Ang-(1-4).
Assay [6] has as its system Ang-(1-7) peptidase (CSF). Nature of the assay: pH profile of [125I]-Ang-. Format: biochemical, sheep. As to conditions: pH 5 to 8.5; N = 3.
In assay [7] the test system is Ang-(1-7) peptidase (CSF). Briefly: Competition of peptides for conversion of [125I]-Ang-. As to conditions: pooled CSF, inhibitor cocktail, 120 min, 37°C; Figure 4.

For “1-carboxy-3-phenyl-propyl (Ala-Ala-Phe-4-Abz-OH [CFP]”, the “attenuation of metabolism of Ang-(1-7) to Ang-(1-4), in words” value (“attenuation” for short) in assay [1] is “failed to attenuate”. In addition, the Ki on neurolysin is 4 µM; in assay [2], 0.18 µM.

With `O=C(O)c1cc[c]([Hg][Cl])cc1` [PCMB, p-chloromercuribenzoic acid], the “conversion of Ang-(1-7) to Ang-(1-4) in CSF, in words” value in assay [3] is “abolished”.

As for `O=C(O)C(O)CNC(=O)[C@H](Cc1ccccc1)NC(CCc1ccccc1)C(=O)O` (stereo partly drawn) [SCH39370], the “attenuation” value in assay [1] is listed as “failed to attenuate”. Besides, the inhibitory constant (Ki) at neprilysin was 0.011 µM.

As for `C[C@H]1C[C@H]2[C@@H]3CCC4=CC(=O)C=C[C@]4(C)[C@@]3(F)[C@@H](O)C[C@]2(C)[C@@]1(O)C(=O)CO` [betamethasone], the “ACE2 activity in renal cortex, isolated tubules and urine, in words” value in assay [4] (BMX sheep) is “lower”. In addition, in assay [4] (adult BMX offspring), the “ACE2 activity in the circulation, in words” value is “decreased” and the “soluble ACE activity in the circulation, in words” value was “increased”. The “MAP, in words” value in [4] (antenatal exposure, by 6 months of age) was “elevated MAP”. For the same compound, in [4] (antenatal exposure, by 6 weeks), the “baroreflex sensitivity (BRS), in words” value is on record as “decreased BRS”.

With Pro-Ile, the “attenuation” value in assay [1] is given as “failed to attenuate”. On neurolysin, the Ki is 90 µM. For the same compound, the “sensitivity of neurolysin forms to inhibition, in words” value in the assay on neurolysin (cytosolic and mitochondrial forms) is given as “sensitive to Pro-Ile inhibition”.

With “[^125I]-Ang-(1-7): iodinated Ang-(1-7), substrate; chloramine T method”, the site of hydrolysis entry in [5] is given as “Tyr^4-Ile^5 bond”. Further, in assay [6], the “conversion in BMX versus control CSF, in words” value is on record as “higher activity than the control”.

Take neurotensin: in assay [7], the “extent of inhibition of enzyme activity over the concentration range” value was determined as 15% and the “extent of inhibition of enzyme activity, in words” value is reported as “poor competitor”.
